# Measurements from patent publication US20050182011A1, “Inhibition of TRP channels as a treatment for cardiac hypertrophy and heart failure” (priority 2003, published 2005).
# Entries after “also recorded” stand apart in the source; their conditions may differ.
# Assays:
# [1] = tested on: TRPC channel protein in left ventricle; assay: Isoproterenol infusion model, Western blot of TRPC isoforms in left ventricle; format: in vivo, rat
# Protocol: (§1) Western Blots. For protein sample preparation, cultured cells were lysed in extraction buffer (50 mM Tris, pH 7.5, 150 mM NaCl, 1% Triton X-100, 0.5% deoxycholic acid, 0.1% SDS) supplemented with protease inhibitors (1 mM AEBSF, 10 mg/ml aprotinin, 0.1 mM leupeptin, 2 mM EDTA). Left ventricle samples were ground under liquid nitrogen and solubilized in extraction buffer containing protease inhibitors. Homogenates were centrifuged 10 min at 4° C. at 16,000 g and supernatants recovered. Protein concentrations were determined by the bicinchoninic acid method (BCA Protein Assay, Pierce) with bovine serum albumin as a standard. Equivalent quantities of protein samples ([…]) were denatured in Laemmli buffer and resolved on Tris-glycine SDS-PAGE gels (4-20% acrylamide gradient, Invitrogen). Resolved proteins were transferred to nitrocellulose membranes, blocked in 5% nonfat dry milk, and probed with rabbit polyclonal primary antibody (diluted in TBST; 50 mM Tris, pH 7.5, 150 mM NaCl, 0.1% Tween-20) supplemented with 5% nonfat dry milk. Primary antibodies used include: anti-TRPC1 and TRPC3 (Alomone Labs) and anti-MCIP1 (Myogen, Inc). Membranes were washed, probed with a goat anti-rabbit horseradish peroxidase-conjugated secondary antibody (Southern Biotechnology Associates), and processed for enhanced chemiluminescence (SuperSignal reagent, Pierce). To verify equivalent protein loading, membranes were subsequently reprobed with a polyclonal rabbit antibody to the housekeeping gene IP90-calnexin. Densitometric analysis of immunoreactive band images was performed using a ChemiImager (Alpha Innotech). Isoproterenol Infusion. For pharmacologic induction of hypertrophy in vivo, nine to ten-week-old male Sprague-Dawley rats were anesthetized via passive inhalation of 2.0% isoflurane. When a level of surgical anesthesia was reached, an osmotic minipump (Alzet model 2001, Alza Corp., Palo Alto, Calif.) containing either vehicle (0.1% ascorbic acid in 0.9% NaCl), or isoproterenol (4.8 mg/kg/d) was subcutaneously implanted into the back between the scapulae followed by closure with 3-0 silk sutures. After 4 days of recovery, animals were sacrificed and left ventricular tissue processed for Western blot analysis as described above. Average heart weight to body weight ratios in isoproterenol versus vehicle-infused rats increased 48% (data not shown).
# [2] = Isoproterenol infusion model, heart weight to body weight ratio; format: in vivo; details: rat, isoproterenol 4.8 mg/kg/d by osmotic minipump, 4 days
# Protocol: Isoproterenol Infusion. For pharmacologic induction of hypertrophy in vivo, nine to ten-week-old male Sprague-Dawley rats were anesthetized via passive inhalation of 2.0% isoflurane. When a level of surgical anesthesia was reached, an osmotic minipump (Alzet model 2001, Alza Corp., Palo Alto, Calif.) containing either vehicle (0.1% ascorbic acid in 0.9% NaCl), or isoproterenol (4.8 mg/kg/d) was subcutaneously implanted into the back between the scapulae followed by closure with 3-0 silk sutures. After 4 days of recovery, animals were sacrificed and left ventricular tissue processed for Western blot analysis as described above. Average heart weight to body weight ratios in isoproterenol versus vehicle-infused rats increased 48% (data not shown).
# [3] = tested on: purinergic P2X receptor calcium channels; details: cited from earlier work
# [4] = tested on: arachidonic acid-activated calcium channels; details: Luo et al., 2001; cited from earlier work
# [5] = tested on: neonatal rat ventricular myocytes (NRVM)
# Protocol: NRVM culture. […] Myocyte preparations were pre-plated in Dulbecco's modified Eagle's medium (DMEM, Cellgro), supplemented with 10% (v/v) fetal bovine serum (FBS, HyClone), 4 mM L-glutamine and 1% penicillin/streptomycin for 1 hr at 37° C. to reduce fibroblast contamination, then plated at a density of 2.5×10^5 cells per well on 6-well tissue culture plates (or 10,000 cells/well on 96-well tissue culture plates) coated with a 0.2% (w/v) gelatin solution.
# For infection with calcineurin adenovirus, NRVM were exposed to adenovirus at a multiplicity of infection (MOI) of 25 for 48 h prior to analysis.
# Hypertrophy and Toxicity Assays. Primary hypertrophy endpoints for NRVM included quantitation of ANF secretion, total cellular protein and cell volume. ANF in media supernatants was quantitated by competitive ELISA using a monoclonal anti-ANF antibody (Biodesign) and a biotinylated ANF peptide (Phoenix Peptide). Total cellular protein was quantitated by standard Coomassie dye-binding assay; cells were lysed in protein assay reagent (BioRad) and absorbance at A595 was measured after 1 hr. […] After recovery by centrifugation, cell pellets were washed in PBS, resuspended in 10 ml IsoFlow electrolyte solution (Beckman-Coulter) and analyzed with a Z2 Coulter Particle Counter and Size Analyzer (Beckman-Coulter). […]
# ryanodine receptors = details: Maruyama et al., 1997; cited from earlier work
# [6] = tested on: calcium-activated chloride channels; details: Chorna-Ornan et al., 2001; cited from earlier work
# [7] = tested on: S-nitrosylation-activated calcium channels; details: Van Rossum et al., 2000; cited from earlier work
# [8] = tested on: MCIP1 protein (indicator of calcineurin activity) in NRVM; assay: Western blot of MCIP1 protein in NRVM; format: cell-based, rat; details: for expression of 38 kDa calcineurin-independent MCIP1 isoform: NRVM
# Protocol: as §1, with “Innotech).” for “Innotech). Isoproterenol Infusion. For pharmacologic induction of hypertrophy in vivo, nine to ten-week-old male Sprague-Dawley rats were anesthetized via passive inhalation of 2.0% isoflurane. When a level of surgical anesthesia was reached, an osmotic minipump (Alzet model 2001, Alza Corp., Palo Alto, Calif.) containing either vehicle (0.1% ascorbic acid in 0.9% NaCl), or isoproterenol (4.8 mg/kg/d) was subcutaneously implanted into the back between the scapulae followed by closure with 3-0 silk sutures. After 4 days of recovery, animals were sacrificed and left ventricular tissue processed for Western blot analysis as described above. Average heart weight to body weight ratios in isoproterenol versus vehicle-infused rats increased 48% (data not shown).”
# [9] = tested on: voltage-gated calcium channels; details: Maruyama et al., 1997; cited from earlier work
# TRPC3 protein in NRVM = assay: Western blot of TRPC3 protein in cultured NRVM exposed to hypertrophic stimuli; format: cell-based, rat; details: 48 h, phenylephrine, FBS 10%, calcineurin adenovirus MOI 25
# Protocol: Western Blots. For protein sample preparation, cultured cells were lysed in extraction buffer (50 mM Tris, pH 7.5, 150 mM NaCl, 1% Triton X-100, 0.5% deoxycholic acid, 0.1% SDS) supplemented with protease inhibitors (1 mM AEBSF, 10 mg/ml aprotinin, 0.1 mM leupeptin, 2 mM EDTA). Left ventricle samples were ground under liquid nitrogen and solubilized in extraction buffer containing protease inhibitors. Homogenates were centrifuged 10 min at 4° C. at 16,000 g and supernatants recovered. Protein concentrations were determined by the bicinchoninic acid method (BCA Protein Assay, Pierce) with bovine serum albumin as a standard. Equivalent quantities of protein samples ([…]) were denatured in Laemmli buffer and resolved on Tris-glycine SDS-PAGE gels (4-20% acrylamide gradient, Invitrogen). Resolved proteins were transferred to nitrocellulose membranes, blocked in 5% nonfat dry milk, and probed with rabbit polyclonal primary antibody (diluted in TBST; 50 mM Tris, pH 7.5, 150 mM NaCl, 0.1% Tween-20) supplemented with 5% nonfat dry milk. Primary antibodies used include: anti-TRPC1 and TRPC3 (Alomone Labs) and anti-MCIP1 (Myogen, Inc). Membranes were washed, probed with a goat anti-rabbit horseradish peroxidase-conjugated secondary antibody (Southern Biotechnology Associates), and processed for enhanced chemiluminescence (SuperSignal reagent, Pierce). […]
compound,measurement,setting,value
CC(C)NCC(O)c1ccc(O)c(O)c1 (stereo not drawn) [isoproterenol],TRPC3 protein expression,[1]; Rat iso model,↑
same,TRPC5 protein expression,[1]; Rat iso model,increased expression
same,TRPC5 protein expression,"[1]; Rat iso model, listed as iso",↑
same,induction of ventricular TRPC3 protein expression,"[1]; rat, chronic isoproterenol infusion, densitometry",approximately three-fold
same,increase of average heart weight to body weight ratio versus vehicle-infused rats,[2],48%
"NCCOB(c1ccccc1)c1ccccc1 [Compound 2-APB, 2-amino-ethoxydiphenyl borane]",inhibition of purinergic P2X receptor calcium channels,[3],not inhibited
same,inhibition of arachidonic acid-activated calcium channels,[4],not inhibited
same,cytotoxicity as measured by adenylate kinase release,"[5]; 48 hours, 0.3 to 30 μM",no significant cytotoxicity; also recorded: no significant toxicity was observed at any concentration
same,inhibition of ryanodine receptors,ryanodine receptors,not inhibited
same,inhibition of calcium-activated chloride channels,[6],not inhibited
same,inhibition of S-nitrosylation-activated calcium channels,[7],not inhibited
same,expression of 38 kDa calcineurin-independent MCIP1 isoform,[8],unaffected
same,PE-dependent induction of 28 kDa MCIP1 protein,"[8]; PE-stimulated NRVM, increasing concentrations",attenuates; also recorded: attenuated induction
same,inhibition of voltage-gated calcium channels,[9],not inhibited
CNC[C@H](O)c1cccc(O)c1 [phenylephrine],expression of 38 kDa calcineurin-independent MCIP1 isoform,[8],unaffected
same,expression of 28 kDa MCIP1 protein,[8]; NRVM stimulated with phenylephrine,strongly induced
same,expression of TRPC3 channel protein in cardiomyocytes,TRPC3 protein in NRVM,significantly increased
Triton X-100,fold change in AK release versus unstimulated control,"[5]; 0.1% Triton X-100, positive control for cytotoxicity",approximately 6 fold
